tested on: M17-TAU P301L cells; test: Tau-induced toxicity experiment: LDH leakage of retinoic acid incubated M17-TAU P301L cells; assay type: cell-based; details: Homo sapiens, Neuroblastoma cell, 168 h; reduction of LDH activity of retinoic acid incubated M17-TAU P301L neuroblastoma cells, 7 days
From the text: A TAU expression plasmid was constructed by sub-cloning the cDNA of human TAU-P301L (encoding for TAU with proline 301 substituted by a leucine residue) into mammalian expression vector pcDNA3.1 resulting in plasmid pcDNA3.1-TAU P301L. Plasmids pcDNA3.1 and pcDNA3.1-TAU P301L were transfected to human neuroblastoma cells ([…]; ATCC No. CRL-2267) and independent clonal lines with the plasmids stably integrated into the genome were selected. […] Expression of the TAU P301L genes in the cell lines was confirmed by Western analysis.
In degenerated or dead cells lactate dehydrogenase (LDH) is leaked out of the cells into the extracellular environment due to a loss of plasma-membrane integrity. This principle was used to determine cytotoxicity by quantifying the level of leaked LDH into the growth medium.
The detailed method for determining TAU cytotoxicity was as follows: From appropriate precultures of M17-3.1 and M17-TAU(P301L) cells were seeded at 2500 cells/cm2 in Optimem Reduced Serum without phenol red (Gibco, Cat. 31985-047) supplemented with 1% fetal calf serum, 1 mM sodium pyruvate, 1× non-essential amino acids, 500 μg/ml G418 0.5× antibiotic/antimycotic. After 3 h of incubation at 37° C./5% CO2 1 volume of Optimem Reduced Serum (same as described above; except without fetal calf serum) supplemented with 2.5 μM retinoic acid (RA) was added. The cells were further incubated for 7 days. Subsequently, LDH activity was determined using Promega Cytotox 96 Non-Radioactive cytotoxicity assay, (Cat. G1780) according the supplier's instructions.
The M17-TAU P301L cell line made it possible to assess the ability of novel compounds to counteract TAU cytotoxicity. […] These measurements were used to calculate EC50 values of table 2.

First: O=C(NCCc1c[nH]c2ccc(Cl)cc12)c1ccc(Cc2ccccc2F)cc1 [Cpd049, N-(2-(5-chloro-1H-indol-3-yl)ethyl)-4-(2-fluorobenzyl)benzamide]
Second: N#Cc1ccc(Cc2ccc(C(=O)NCCc3c[nH]c4ccc(Cl)cc34)cc2)cc1 [Cpd031, N-(2-(5-chloro-1H-indol-3-yl)ethyl)-4-(4-cyanobenzyl)benzamide]
The EC50 of the first is 1.9-fold higher: 31 nM for the first, 16 nM for the second. The second is the more potent here.

Going from `O=C(NCCc1c[nH]c2ccc(N3CCOCC3)cc12)c1ccc(Cc2cccc(F)c2)cc1` [Cpd116, 4-(3-fluorobenzyl)-N-(2-(5-morpholino-1H-indol-3-yl)ethyl)benzamide] to `O=C(NCc1c[nH]c2ccc(Cl)cc12)c1ccc(Cc2cccc(F)c2)cc1` [Cpd071, N-((5-chloro-1H-indol-3-yl)methyl)-4-(3-fluorobenzyl)benzamide], the EC50 rises from 166 nM to 277 nM (1.7-fold). The first is the more potent here.

Going from `O=C(NCCc1c[nH]c2ccc(Cl)cc12)c1ccc(CNCC2CCCCC2)cc1` [Cpd018, N-(2-(5-chloro-1H-indol-3-yl)ethyl)-4-((cyclohexylmethylamino)methyl)benzamide] to `O=C(NCCc1c[nH]c2ccc(Cl)cc12)c1ccc(CNCc2cccs2)cc1` [Cpd026, N-(2-(5-chloro-1H-indol-3-yl)ethyl)-4-((thiophen-2-ylmethylamino)methyl)benzamide], the EC50 falls from 168 nM to 83 nM (2-fold). The second is the more potent here.

First: O=C(NCCc1c[nH]c2ccc(Cl)cc12)c1ccc(Cc2cccc(F)c2)cn1 [Cpd107, N-(2-(5-chloro-1H-indol-3-yl)ethyl)-5-(3-fluorobenzyl)picolinamide]
Second: O=C(NCCc1c[nH]c2ccc(Cl)cc12)c1cccc(Cc2ccoc2)c1 [Cpd083, N-(2-(5-chloro-1H-indol-3-yl)ethyl)-3-(furan-3-ylmethyl)benzamide]
The EC50 of the first is 2.2-fold lower: 26 nM for the first, 56 nM for the second. The first is the more potent here.

Compared with `CN(c1ccc(C(=O)NCCc2c[nH]c3ccc(Cl)cc23)cc1)c1cccc(F)c1` [Cpd104, N-(2-(5-chloro-1H-indol-3-yl)ethyl)-4-((3-fluorophenyl)(methyl)amino)benzamide], `N#Cc1cccc(Cc2cccc(C(=O)NCCc3c[nH]c4ccc(Cl)cc34)c2)c1` [Cpd038, N-(2-(5-chloro-1H-indol-3-yl)ethyl)-3-(3-cyanobenzyl)benzamide] is 8.5-fold lower in EC50: 264 nM for the first, 31 nM for the second.

`O=C(NCCc1c[nH]c2ccc(Cl)cc12)c1cccc(Cc2cccs2)c1` [Cpd075, N-(2-(5-chloro-1H-indol-3-yl)ethyl)-3-(thiophen-2-ylmethyl)benzamide] and `O=C(NCCc1c[nH]c2ccc(Cl)cc12)c1cccc(Cc2ccsc2)c1` [Cpd076, N-(2-(5-chloro-1H-indol-3-yl)ethyl)-3-(thiophen-3-ylmethyl)benzamide] are within 1.5-fold of each other in EC50: 30 nM for the first, 29 nM for the second.

First: O=C(NCCc1c[nH]c2ccc(Cl)cc12)c1ccccc1Cc1ccccc1 [Cpd009, 2-benzyl-N-(2-(5-chloro-1H-indol-3-yl)ethyl)benzamide]
Second: N#Cc1ccccc1Cc1cccc(C(=O)NCCc2c[nH]c3ccc(Cl)cc23)c1 [Cpd060, N-(2-(5-chloro-1H-indol-3-yl)ethyl)-3-(2-cyanobenzyl)benzamide]
The EC50 of the first is 2.1-fold higher: 240 nM for the first, 116 nM for the second.

Work on `O=C(NCCc1c[nH]c2ccc(Cl)cc12)c1cccc(Cc2ccco2)c1` [Cpd077, N-(2-(5-chloro-1H-indol-3-yl)ethyl)-3-(furan-2-ylmethyl)benzamide] yielded an EC50 of 17 nM.
